Molecular target: T1, HDAC8 (histone deacetylase 8) (Homo sapiens, UniProt Q9BY41)
T1 sequence (Q9BY41 1-377): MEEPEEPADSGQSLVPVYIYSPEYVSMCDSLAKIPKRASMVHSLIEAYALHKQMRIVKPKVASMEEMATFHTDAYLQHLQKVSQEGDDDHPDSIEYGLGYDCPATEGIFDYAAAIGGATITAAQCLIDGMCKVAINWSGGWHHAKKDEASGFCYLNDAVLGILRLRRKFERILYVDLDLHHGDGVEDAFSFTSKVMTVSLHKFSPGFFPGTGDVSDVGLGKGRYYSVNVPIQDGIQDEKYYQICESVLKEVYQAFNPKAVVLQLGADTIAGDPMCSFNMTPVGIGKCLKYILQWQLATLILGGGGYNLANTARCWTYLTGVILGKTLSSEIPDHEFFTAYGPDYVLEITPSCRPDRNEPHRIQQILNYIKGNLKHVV
Test: Fluor de Lys fluorogenic deacetylase inhibition assay with AcRHKK
Format: biochemical

SMILES | Ki [mM]
CCCCCCCCCC(=O)O [Decanoic acid] | 4.48 ± 0.221
CCCCCC(=O)O [Hexanoic acid] | 2.35 ± 0.341

Source: PMC8669121 (Epigenetics Insights, 2021)
